Experimental findings from patent US20170246146A1, “POLYPHENOL FOR WOUND HEALING” (IC-MedTech Corporation, priority 2012, published 2017) are described below.

Data set [1] concerns full thickness excision wounds. The experiment in a line: Wound healing studies in mice. In kind it is in vivo, Balbc/J male mice. Conditions: topical, days 0-5, by day 5, glycerin 27%. The protocol:
Sixty, 5-6 week old Balbc/J male mice were ear notched for identification and housed in individually and positively ventilated polycarbonate cages with HEPA filtered air. Bed-o-cob corn cob bedding were used and cages were changed every two weeks. The animal room was lighted entirely with artificial fluorescent lighting, with a controlled 12 hr light/dark cycle. The normal temperature and relative humidity ranges in the animal rooms were 22±4° C. and 50±15%, respectively. The animal rooms were set to have 15 air exchanges per hour. Filtered tap water, acidified to a pH of 2.8 to 3.1, and rodent chow were provided ad libitum.
Following a 5 to 7 days acclimation, mice were randomized by body weight into 6 cohorts of 10 mice each. On study day 0 (D0), mice were anesthetized and two full thickness excision wounds (˜6 mm) were made on the dorsum (backs) of mice. One of the wounds was covered using a semi-occlusive polyurethane dressing (TEGADERM™). […]
Wound measurements were made on days 5, 7, 9, and 11. […] Traces were captured by scan and analyzed by a computer imaging software. […]
After being wounded, the mice had saddles applied around the wounds to prevent cross contamination and wound closure due to constriction. […] At day 5, test agents were removed and changes in wound area were measured in an effort to gauge the persistence of the compounds in the wound site.

The test system of another data set is intracellular peroxides. In words: Pro-oxidant production (DCFH-DA fluorescence). The format is cell-based. The protocol:
Production of intracellular peroxides was monitored spectrofluorometrically using dichlorofluorescein diacetate (DCFH-DA) as a fluorescent dye. Cell suspensions were treated with DCFH-DA at a final concentration of 100 μM in the medium. Oxidation of DCFH by peroxides yields dichlorofluorescein (DCF). Fluorescence was monitored at the excitation and emission wavelengths of 485 and 530 nm, respectively, using a fluorescence plate reader (50 cycles per 20 s at 37° C.) (Biotek Synergy HT®). Hydrogen peroxide (μM) was determined based on fluorescence generated from a hydrogen peroxide standard curve.
Apatone production of hydrogen peroxide was determined based a standard curve. Serial dilutions of Apatone (1000/10, 500/5, 250/2.5, 125/1.25, and 62.5/0.625) were then added to cells pre-treated with DCF-DA and read over a series of time points (1, 3, 5, and 24 hrs).

In data set [2] the test system is MatTek EPIDERMFT™ (Full Thickness skin) tissue. In words: MatTek EPIDERM MTT Viability Assay (dermal irritation potential). The format is cell-based, Human. As for the experimental part:
The MatTek EPIDERM™ MTT Viability Assay was employed as a quantitative method for assessing the dermal irritation potential of TOLECINE®. MatTek EPIDERMFT™ (Full Thickness skin) tissue samples were treated with TOLECINE® (neat) or a positive control (1% Triton X-100) for various exposure times ranging from 1 to 24 hrs. Negative controls (undosed tissues) were tested for 8 hrs only. Following treatment, the viability of the tissues were determined using MTT uptake and conversion and the absorbance of each sample was measured at 540 nm using a reference wavelength of 690 nm. The viability was then expressed as a percent of control values. The mean percent of each time point was used to calculate an ET50, which represented the time at which the EPIDERMFT™ tissue viability was reduced 50% compared to the control tissue.

The subject of data set [3] is Human foreskin fibroblasts. The experiment in a line: Scratch wound assay, fibroblasts. The format is cell-based. The protocol:
(§1) A scratch wound assay was employed to evaluate the in vitro wound healing capacity of APATONE® and TOLECINE®. For the scratch-wound assay, cells were seeded on 6-well culture plates. At 80% cell confluence, a scratch-wound was produced using a sterile pipette tip and the size of the gap was measured and set to 100%. The cells were treated with test agents at various concentrations and the closing of the scratch-wound was measured at 24, 48, and 72 hrs. This experiment was performed three times for each cell line. Human foreskin fibroblasts were employed to optimize the assay because of the involvement of fibroblasts in wound healing. Human skin fibroblasts were scratched and then sham treated or treated with VC alone or APATONE® for 24 hrs.

The next data set relates to VEGF. In words: VEGF production (VEGF Quantiglo Immunoassay). The format is cell-based, Human. The settings on record: for VEGF: keratinocytes. The protocol:
Human adult keratinocytes were plated into a 6 well plate and allowed to grow to >80% confluency. The back of a rubber scraper was then used to scratch each plate, creating a uniform linear wound across each well. Cells were then rinsed with media to remove non-adherent cells and drugs at indicated concentrations were added. Media aliquots were taken at 1, 3, 6, or 16 hrs and spun down at 6,250 rpm for 10 minutes. Supernatants were then collected and stored at −4 ° C. until assayed using the VEGF Quantiglo Immunoassay (Research and Development Systems) according to kit instructions.

Another data set relates to prostaglandin E2 (PGE-2). In words: PGE-2 ELISA in EPIDERMFT assay medium. In kind it is cell-based, Human. The settings on record: 24 hr exposure; negative control 6.1 ng/mL. As for the experimental part:
(§2) Enzyme-linked immunosorbent assay (ELISA) kits were used to test for the presence of the cytokine interleukin-1 alpha (IL-1α) and the inflammatory mediator prostaglandin E2 (PGE-2) in the assay medium. Approximately 1 mL of the media from beneath the tissue millicells were sampled at the end of dosing and incubation. The assays were conducted according to the manufacturer's directions on both undiluted samples and samples diluted to 10% in order to obtain the detectable protein range of the ELISA kits. Protein standards were run with both ELISAs in order to derive standard curves.

Another data set relates to Keratinocytes. In words: Scratch wound assay, keratinocytes. In kind it is cell-based. Conditions: compared with fibroblast data. As for the experimental part:
as §1
Keratinocytes were grown to 90% confluence and then scratched to generate a wound. Cells were then treated with sham (fresh media) or a single dose of APATONE® at 75 μM sodium ascorbate and 0.75 μM menadione sodium bisulfate. […] Without being limited by any theory, the decreased closure of APATONE® during the second 24 hrs probably reflects metabolism of the vitamins by the keratinocytes.

Data set [4] has as its system interleukin-1 alpha (IL-1α). In words: IL-1α ELISA in EPIDERMFT assay medium. In kind it is cell-based, Human. The settings on record: 24 hr exposure; negative control 8.156 pg/mL. The protocol: as §2

Turning to `Oc1ccc(C#Cc2ccc(O)cc2)cc1` [TOLECINE®, 4,4′-(ethyne-1,2-diyl)diphenol], the wound closure in data set [1] (2.5% in glycerin) was 93%; in data set [1] (5% TOLECINE® in glycerin), 87%; in data set [3] (2.5 μM, 24 hrs, sham 30%), 85%; in data set [3] (2.5 μM, 48 hrs, sham 80%), 100%; in data set [3] (5 μM, 24 hrs, sham 30%), 85%; in data set [3] (5 μM, 48 hrs, sham 80%) it was 100%. In data set [3] (10 μM, 24 hrs, sham 30%), this compound had a wound closure of 100%. Further, the “hydrogen peroxide production, dose dependence” value in the data set on intracellular peroxides (FIGS. 4-6) is “dose dependent”. Further, the “hydrogen peroxide production over time” value with intracellular peroxides (keratinocytes exposed for 5 hrs or more) is recorded as “continued to increase”. In data set [2] (human), the “ET50 (time at which tissue viability was reduced 50% compared to control)” value was “greater than 24 hrs”. For the same compound, the “VEGF” value was 32.6 pg/mL with VEGF (10 μM, 1 hr, sham 12.4); 29.4 pg/mL in the data set with VEGF (10 μM, 3 hrs, sham 13.2); 120 pg/mL with VEGF (10 μM, 6 hrs, sham 42.0); 120.7 pg/mL in the data set on VEGF (10 μM, 6 hrs, sham 42.0, listed as TOL); 237 pg/mL in the data set on VEGF (10 μM, 16 hrs, sham 67.4); 237.2 pg/mL in the data set with VEGF (10 μM, 16 hrs, sham 67.4, listed as TOL). The “VEGF” value in the data set with VEGF (20 μM, 1 hr, sham 12.4) stood at 121.2 pg/mL; in the data set on VEGF (20 μM, 3 hrs, sham 13.2) it was 148.7 pg/mL; in the data set with VEGF (20 μM, 6 hrs, sham 42.0) it was 225 pg/mL; in the data set on VEGF (20 μM, 6 hrs, sham 42.0, listed as TOL), 225.9 pg/mL; in the data set with VEGF (20 μM, 16 hrs, sham 67.4) it was 457 pg/mL; in the data set with VEGF (20 μM, 16 hrs, sham 67.4, listed as TOL) it was 457.2 pg/mL. In the data set with VEGF (10 μM, first 3 hrs), the “VEGF production, early time course” value is reported as “lag in VEGF production”. In addition, the PGE-2 levels with prostaglandin E2 (PGE-2) is 9.5 ng/mL. Moreover, in the data set on Keratinocytes, the “wound closure in keratinocytes” value was “closely approximated that observed with fibroblasts”.

Regarding `O=C1O[C@H]([C@@H](O)CO)C(O)=C1O` [VC, L-ascorbic acid, reference compound], the “width of the scratch” value in data set [3] (2,000 μM VC, at 24 hrs, 28.0 μm immediately after scratching (sham 15.8 to 8.3 μm)) is listed as 16.9 μm. Moreover, in data set [3] (VC alone at 75 μM), the “activity in scratch wound assay” value is on record as “not active”. The wound closed entry in data set [3] (fibroblasts, after 24 hrs, FIG. 1 (VC 2000 μM), sham about 57%) is listed as “about 43%”.

For the compound `Oc1ccc(C=Cc2cc(O)cc(O)c2)cc1` [resveratrol, reference compound], the “VEGF production compared with TOLECINE®” value in the data set with VEGF (20 μM each) is “less than the VEGF production by TOLECINE® at 20 μM”. Moreover, the “VEGF” value in the data set on VEGF (resveratrol 20 μM, 1 hr, sham 12.4) is recorded as 139.0 pg/mL; in the data set with VEGF (resveratrol 20 μM, 3 hrs, sham 13.2), 166.7 pg/mL; in the data set with VEGF (resveratrol 20 μM, 6 hrs, sham 42.0), 196 pg/mL; in the data set on VEGF (resveratrol 20 μM, 6 hrs, sham 42.0, listed as RES), 196.0 pg/mL; with VEGF (resveratrol 20 μM, 16 hrs, sham 67.4), 274 pg/mL; with VEGF (resveratrol 20 μM, 16 hrs, sham 67.4, listed as RES), 274.1 pg/mL.

For “Triton X-100 [positive control, reference compound]”, the “ET50 (time at which tissue viability was reduced 50% compared to control)” value in data set [2] (TOLECINE® neat, positive control 1% Triton X-100, exposure 1 to 24 hrs, MTT) came out at 10.4 h. In the data set on prostaglandin E2 (PGE-2), this compound returned a PGE-2 levels of 1211 ng/mL. Further, the IL-1α levels in data set [4] is 168 pg/mL.
